Measurements as given in ChEMBL document CHEMBL1201862, “PubChem BioAssay data set” (2004).
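Briefly, cells in 96-well plates were exposed to five compound concentrations for 48 h, and endpoints were estimated by linear interpolation. Abbreviation: GI50, concentration required for 50% inhibition of growth.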 Active and inactive are the calls of the source. Rule as the data show it: active = GI50 up to about 1.1 µM and inactive = higher. Where a SMILES comes first, the peptide text is derived from it. The star is where a group is joined. Boc = CC(C)(C)OC(=O)*; OBn = c1ccc(CO*)cc1

What was measured:
Experiment in all cases: growth of human tumour cells (NCI), 48 h
SN12C = test system: SN12C
MDA-MB-435 = test system: MDA-MB-435
UO-31 = test system: UO-31
SK-OV-3 = test system: SK-OV-3
HOP-92 = test system: HOP-92
UACC-257 = test system: UACC-257
SNB-75 = test system: SNB-75
U-251 = test system: U-251
RXF 393 = test system: RXF 393
UACC-62 = test system: UACC-62
MDA-N = test system: MDA-N
KM12 = test system: KM12
SK-MEL-2 = test system: SK-MEL-2
HCT-116 = test system: HCT-116
OVCAR-3 = test system: OVCAR-3
PC-3 = test system: PC-3
NCI/ADR-RES = test system: NCI/ADR-RES
EKVX = test system: EKVX
NCI-H522 = test system: NCI-H522
ACHN = test system: ACHN

SMILES	GI50 (SN12C)	GI50 (MDA-MB-435)	GI50 (UO-31)	GI50 (SK-OV-3)	GI50 (HOP-92)	GI50 (UACC-257)	GI50 (SNB-75)	GI50 (U-251)	GI50 (RXF 393)	GI50 (UACC-62)	GI50 (MDA-N)	GI50 (KM12)	GI50 (SK-MEL-2)	GI50 (HCT-116)	GI50 (OVCAR-3)	GI50 (PC-3)	GI50 (NCI/ADR-RES)	GI50 (EKVX)	GI50 (NCI-H522)	GI50 (ACHN)
Brc1ccc(C2C3CSc4ccccc4C3=NN2c2ccccc2)cc1 (stereo unspecified)	> 100 µM (inactive)	> 100 µM (inactive)	94.8 µM (inactive)	82.8 µM (inactive)	> 100 µM (inactive)	4.07 µM (inactive)	69 µM (inactive)	54.2 µM (inactive)	> 100 µM (inactive)	75.7 µM (inactive)	> 100 µM (inactive)	44.5 µM (inactive)	> 100 µM (inactive)	> 100 µM (inactive)	> 100 µM (inactive)	43.8 µM (inactive)	77.6 µM (inactive)	–	–	–
O=C(O)COCC(=O)N(CCOCCN(Cc1ccccc1)C(=O)COCC(=O)O)Cc1ccccc1	> 100 µM (inactive)	> 100 µM (inactive)	–	> 100 µM (inactive)	< 0.01 µM (active)	> 100 µM (inactive)	–	> 100 µM (inactive)	> 100 µM (inactive)	> 100 µM (inactive)	> 100 µM (inactive)	> 100 µM (inactive)	> 100 µM (inactive)	> 100 µM (inactive)	> 100 µM (inactive)	> 100 µM (inactive)	> 100 µM (inactive)	> 100 µM (inactive)	> 100 µM (inactive)	> 100 µM (inactive)
COc1cc([N+](=O)[O-])c(S(=O)(=O)[O-])cc1-[n+]1nc(C(=O)Nc2ccccc2)nn1-c1ccc([N+](=O)[O-])c(S(=O)(=O)O)c1	> 100 µM (inactive)	> 100 µM (inactive)	> 100 µM (inactive)	> 100 µM (inactive)	–	–	> 100 µM (inactive)	> 100 µM (inactive)	> 100 µM (inactive)	> 100 µM (inactive)	> 100 µM (inactive)	> 100 µM (inactive)	> 100 µM (inactive)	> 100 µM (inactive)	> 100 µM (inactive)	> 100 µM (inactive)	> 100 µM (inactive)	> 100 µM (inactive)	> 100 µM (inactive)	> 100 µM (inactive)
O=C(NNC(=O)c1cc2ccccc2[nH]1)c1cc2ccccc2[nH]1	> 100 µM (inactive)	> 100 µM (inactive)	> 100 µM (inactive)	> 100 µM (inactive)	–	> 100 µM (inactive)	> 100 µM (inactive)	> 100 µM (inactive)	> 100 µM (inactive)	> 100 µM (inactive)	> 100 µM (inactive)	> 100 µM (inactive)	> 100 µM (inactive)	> 100 µM (inactive)	> 100 µM (inactive)	> 100 µM (inactive)	> 100 µM (inactive)	> 100 µM (inactive)	> 100 µM (inactive)	–
C[N+](C)(C)CCOP(=O)([O-])OCCNC(=O)c1ccc2ccccc2c1	> 100 µM (inactive)	> 100 µM (inactive)	> 100 µM (inactive)	> 100 µM (inactive)	–	> 100 µM (inactive)	> 100 µM (inactive)	> 100 µM (inactive)	> 100 µM (inactive)	> 100 µM (inactive)	> 100 µM (inactive)	> 100 µM (inactive)	–	> 100 µM (inactive)	> 100 µM (inactive)	> 100 µM (inactive)	31.5 µM (inactive)	> 100 µM (inactive)	> 100 µM (inactive)	> 100 µM (inactive)
CC(C)(C)OC(=O)NC(Cc1ccccc1)C(=O)NC(Cc1ccccc1)C(=O)NCC(=O)OCc1ccccc1 (stereo not drawn) (Boc-Phe-Phe-Gly-OBn; configuration not given here)	21.7 µM (inactive)	8.36 µM (inactive)	41 µM (inactive)	22.8 µM (inactive)	> 100 µM (inactive)	> 100 µM (inactive)	37.8 µM (inactive)	18.7 µM (inactive)	–	16.3 µM (inactive)	19.9 µM (inactive)	–	33.6 µM (inactive)	18.3 µM (inactive)	20 µM (inactive)	16.3 µM (inactive)	> 100 µM (inactive)	45 µM (inactive)	6 µM (inactive)	47.3 µM (inactive)
C[C@H](CCC(=O)O)[C@H]1CC[C@H]2[C@@H]3CC[C@@H]4C[C@H](O)CC[C@]4(C)[C@H]3C[C@H](O)[C@]12C [DEOXYCHOLIC ACID]	34 µM (inactive)	42.2 µM (inactive)	37.6 µM (inactive)	26.7 µM (inactive)	–	92.3 µM (inactive)	37.1 µM (inactive)	30.7 µM (inactive)	52.4 µM (inactive)	37.5 µM (inactive)	42.2 µM (inactive)	49.4 µM (inactive)	31.2 µM (inactive)	32.9 µM (inactive)	20.4 µM (inactive)	33.6 µM (inactive)	44.5 µM (inactive)	31.4 µM (inactive)	28 µM (inactive)	37.8 µM (inactive)
